These results are taken from patent US7964621B2, “Thioamide compounds, method of making and method of using thereof” (Merial Limited, priority 2008, dated 2011).

Where only a bound is given, the exact number is not on record here.

The subject of the first test is Haemonchus contortus. In words: Method B: screening against Haemonchus contortus in vivo on Mongolian jirds (Meriones unguiculatus). The conditions noted are these: oral gavage, dose as low as 1 or 10 mg/kg, necropsy 3 days after treatment, vs placebo control group. The procedure:
Method B: Screening Method to Test Activity of Compounds Against Haemonchus contortus in Vivo on Mongolian Jirds (Meriones unguiculatus). Mongolian jirds, at least five weeks old, were immunosuppressed and artificially infected with ca. 1000 ensheathed Haemonchus contortus third instar larvae. Six days after infection, the jirds were treated by oral gavage with the test compounds, dissolved in a mixture of 2 parts DMSO and 1 part polyethylene glycol (PEG400), at doses of 100 mg/kg and 10 mg/kg. Jirds treated only with the placebo (2 parts DMSO and 1 part PEG400) served as controls. On day 9 (3 days after treatment) the jirds were euthanized and necropsied for recovery of parasites from the stomach. Efficacy was calculated as the average % reduction in the number of worms in each test group compared with the average number of worms from the control group. […] Compound number 1, provided at least 95% reduction in nematode infestation at a dose as low as 1 or 10 mg/kg.
With `CC(Cn1nc2c(Cl)cc(Cl)c(Cl)c2n1)(NC(=O)c1ccc(OC(F)(F)F)cc1)C(N)=S` (stereo not drawn) [Compound 1, N-[1-Methyl-1-thiocarbamoyl-2-(4,5,7-trichloro-2H-benzotriazol-2-yl)-ethyl]-4-trifluoromethoxybenzamide], the “reduction in nematode infestation” value was “at least 95%”.

Another test deals with Haemonchus contortus. Nature of the test: Method A: screening of compounds against Haemonchus contortus L1 larvae in microtitre plate (development to L3). The conditions noted are these: 96 h, test concentration 0.01 ppm, 4 days assessment, 27° C., read-out: motility inhibition. The procedure: Method A: Screening Method to Test Activity of Compounds Against Haemonchus contortus. Twenty L1 Haemonchus contortus larvae were added to wells of a microtitre plate containing a nutrient medium and the test compound in DMSO. The microtitre plate was then held at 27° C. where the L1 larvae were allowed to develop. An analysis was conducted at 4 days to determine successful development to the L3 stage. Larvae exposed to DMSO and no test compound served as controls. Compounds numbers 3, 4, 6 and 8 gave at least 90% motility inhibition at a test concentration of 0.15 ppm at the 4 days assessment. Compounds numbers 1, 2, 5 and 7 gave at least 90% motility inhibition at a test concentration of 0.01 ppm at the 4 days assessment.
On to `CC(Cn1nc2c(Cl)cc(Cl)c(Cl)c2n1)(NC(=O)c1ccc(OC(F)(F)F)cc1)C(N)=S` (stereo not drawn) [Compound 1, N-[1-Methyl-1-thiocarbamoyl-2-(4,5,7-trichloro-2H-benzotriazol-2-yl)-ethyl]-4-trifluoromethoxybenzamide], for which the inhibition (as a rule, the share of the control response that was lost under treatment) at 0.01 ppm is not below 90%.
Take `CC(Cn1nc2c(Cl)cc(Cl)c(Cl)c2n1)(NC(=O)c1ccc(SC(F)(F)F)cc1)C(N)=S` (stereo not drawn) [Compound 2]: the inhibition at 0.01 ppm is not below 90%.
As to `CC(COc1cc(C#N)ccc1C(F)(F)F)(NC(=O)c1ccc(OC(F)(F)F)cc1)C(N)=S` (stereo not drawn) [Compound 7, N-[2-(5-Cyano-2-trifluoromethylphenoxy)-1-methyl-1-thiocarbamoyl-ethyl]-4-trifluoromethoxybenzamide], the inhibition at 0.01 ppm was not below 90%.
Same read-out and setting: the value for `CC(COc1cc(C#N)ccc1C(F)(F)F)(NC(=O)c1ccc(SC(F)(F)F)cc1)C(N)=S` (stereo not drawn) [Compound 5] was not below 90%.

The same test, now with this note: 96 h, test concentration 0.15 ppm, 4 days assessment, 27° C., read-out: motility inhibition.
For `CC(COc1cc(C(N)=S)ccc1C(F)(F)F)(NC(=O)c1ccc(OC(F)(F)F)cc1)C(N)=S` (stereo not drawn) [Compound 8], the inhibition at 0.15 ppm was not below 90%.
Take `CC(COc1ccc(C(N)=S)cc1C(F)(F)F)(NC(=O)c1ccc(OC(F)(F)F)cc1)C(N)=S` (stereo not drawn) [Compound 4, N-[1-Methyl-1-thiocarbamoyl-2-(4-thiocarbamoyl-2-trifluoromethylphenoxy)-ethyl]-4-trifluoromethoxybenzamide]: the inhibition at 0.15 ppm was not below 90%.
For `CC(COc1cc(C(N)=S)ccc1C(F)(F)F)(NC(=O)c1ccc(SC(F)(F)F)cc1)C(N)=S` (stereo not drawn) [Compound 6], the inhibition at 0.15 ppm is not below 90%.
As to `CC(COc1ccc(C#N)cc1C(F)(F)F)(NC(=O)c1ccc(OC(F)(F)F)cc1)C(N)=S` (stereo not drawn) [Compound 3, N-[2-(4-Cyano-2-trifluoromethylphenoxy)-1-methyl-1-thiocarbamoyl-ethyl]-4-trifluoromethoxybenzamide], the inhibition at 0.15 ppm is not below 90%.
